Assay [1] has as its system healthy volunteer. Description: Daily 0-2 sexual desire score in a single-subject sequential four-treatment study (4 weeks each). Format: in vivo, human. The note with it: for Sexual desire response (in words): overall. How it is done: (§1) Method. […] (1) Treatment B: […] IR Trz 50 mg t.i.d.; […] Bup 75 mg t.i.d. A washout of 1-4 weeks occurred between each treatment. […] Sexual events were counted, and three domains (sexual arousal, orgasm, and overall satisfaction with the event) were scored. Each of the sexual event variables was converted to a simple patient's global impression of improvement (PGI; improved or not improved today compared to pre-treatment baseline). […] Bup is already recommended as a treatment for HSDD; Trz is not. Thus, Fisher's exact test was applied post-hoc to the PGIs for Treatment B vs. Treatment Llow (Llow) and vs. […] Upon the advice of the independent researcher the subject dichotomized their sexual event results in a simple daily patient's global impression of improvement: improved or not improved today (compared to pre-treatment baseline). The independent researcher, when told that the results were positive for the subject but before seeing any of the data, decided to apply categorical tests to the most obvious comparisons between treatments: for the first two weeks, the second two weeks, and for all four weeks of treatment, low-dose combination of bupropion plus trazodone vs. corresponding dose of bupropion; and high-dose the combination of bupropion plus trazodone vs. same dose of trazodone. The test used for the desire score was a two-tailed paired t test. The test used for the two-category variables was an online two-tailed Fisher's exact test. Both were from the website graphpad.com.*

Assay [2] concerns healthy volunteer. Description: Patient's global impression of improvement (PGI) for sexual events: arousal, orgasm, overall satisfaction; same single-subject study. Format: in vivo, human. How it is done:
as §1

`CC(NC(C)(C)C)C(=O)c1cccc(Cl)c1` (racemic) [Bup, (±)-2-(tert-Butylamino)-1-(3-chlorophenyl)propan-1-one]: in the assay with healthy volunteer [1], the “Sexual desire response (in words)” value is “intermediate”. In addition, the “0-2 Daily Desire Score, % of max. (max. = 28)” value was 32% in the assay on healthy volunteer [1] (wks 1-2) and 50% in the assay with healthy volunteer [1] (wks 3-4). Besides, the “Improvements in arousal, % of sexual events” value in the assay with healthy volunteer [2] (third and fourth weeks of use) amounted to 0%; with healthy volunteer [2] (total for all four weeks) it was 20%; in the assay with healthy volunteer [2] (weeks 1-2) it was 40%. Moreover, the “Improvements in arousal, fraction of sexual events” value with healthy volunteer [2] (weeks 1-2) was “⅖”.
Take `O=c1n(CCCN2CCN(c3cccc(Cl)c3)CC2)nc2ccccn12` [Trz, 2-{3-[4-(3-chlorophenyl)piperazin-1-yl]propyl}[1,2,4]triazolo[4,3-a]pyridin-3(2H)-one]: in the assay with healthy volunteer [1], the “Sexual desire response (in words)” value was “low”. The “0-2 Daily Desire Score, % of max. (max. = 28)” value is reported as 7% with healthy volunteer [1] (wks 1-2) and 0, 0% in the assay on healthy volunteer [1] (wks 3-4).

(Values after patent publication US20140038985A1, “TREATMENT REGIMENS” (S1 Pharmaceuticals, Inc., priority 2011, published 2014).)
